Target: T1, NUDT5 (purified) (Homo sapiens, UniProt Q9UKK9)
T1 construct: homodimer
Assay: enzyme-coupled malachite green assay
Assay type: biochemical
Settings: […] ADP-ribose, pH […] Mg acetate, […] °C

Compound: COc1cc(-c2nnc(Cn3c(N4CCNCC4)nc4c3c(=O)n(C)c(=O)n4C)o2)ccc1C [TH10184]
- IC50: TH10184 showed comparable biochemical inhibition and thermal shift to TH5427

From doi:10.1101/2025.06.13.659494v2, “A cell-based degrader assessment platform facilitates discovery of functional NUDT5 PROTACs” (biorxiv, 2026)
